Measurements published in the Deep4Chem optical property database.
Values belong to the molecule of their own block, whether it stands above or below them.

Experiment: solvent given as SMILES

SMILES: CCn1c2ccsc2c2c3nsnc3c3c4sccc4n(CC)c3c21
fluorescence lifetime (in C1CCOC1): 23.7 ns
fluorescence lifetime (in CCOC(C)=O): 24.2 ns
fluorescence lifetime (in CN(C)C=O): 22.1 ns
fluorescence lifetime (in Cc1ccccc1): 19.4 ns
fluorescence lifetime (in ClCCl): 16.6 ns

SMILES: O=Cc1ccc(N(c2ccc(C=O)cc2)c2ccc(-c3ccc4c(c3)C(=O)c3ccccc3C4=O)cc2)cc1
fluorescence lifetime (in C1CCOC1): 2.01 ns
fluorescence lifetime (in CCOC(C)=O): 1.49 ns
fluorescence lifetime (in CCOCC): 6.6 ns
fluorescence lifetime (in Cc1ccccc1): 6.83 ns
fluorescence lifetime (in ClC(Cl)(Cl)Cl): 2.82 ns
fluorescence lifetime (in ClCCl): 0.79 ns

SMILES: CN(C)c1ccc2nc(/C=C/c3ccccc3)c(=O)oc2c1
fluorescence lifetime (in C1CCCCC1): 2.82 ns
fluorescence lifetime (in C1COCCO1): 3.52 ns
fluorescence lifetime (in CC#N): 3.95 ns
fluorescence lifetime (in CC(C)=O): 3.82 ns
fluorescence lifetime (in CCCCCCC): 2.8 ns
fluorescence lifetime (in CCO): 3.77 ns
fluorescence lifetime (in CCOC(C)=O): 3.58 ns
fluorescence lifetime (in CN(C)C=O): 3.65 ns
fluorescence lifetime (in CS(C)=O): 3.58 ns
fluorescence lifetime (in Cc1ccccc1): 3 ns
fluorescence lifetime (in ClC(Cl)Cl): 3.74 ns
fluorescence lifetime (in ClCCl): 3.83 ns

SMILES: CC(C)(C)c1ccc(N2c3ccc(C(C)(C)C)cc3B3c4cc(C(C)(C)C)ccc4N(c4ccc(C(C)(C)C)cc4)c4cc(-n5c6ccc(C(C)(C)C)cc6c6cc(C(C)(C)C)ccc65)cc2c43)cc1
fluorescence lifetime (in Cc1ccccc1): 6.02 ns

SMILES: COc1ccc(-c2cc(-c3ccc(OC)cc3)c3c(N)nc(N4CCCC4)c(C#N)c3n2)cc1
fluorescence lifetime (in CC#N): 11.6 ns
fluorescence lifetime (in CC(C)=O): 10 ns
fluorescence lifetime (in CC(C)O): 11.6 ns
fluorescence lifetime (in CO): 10.3 ns
fluorescence lifetime (in ClC(Cl)Cl): 11.6 ns
fluorescence lifetime (in ClCCl): 13.2 ns
fluorescence lifetime (in c1ccccc1): 12 ns

SMILES: CCN(CC)c1ccc(/C=C/c2ccc(-c3ccc(/C=C/c4ccc(N(CC)CC)cc4)s3)s2)cc1
fluorescence lifetime (in C1CCOC1): 1.1 ns
fluorescence lifetime (in CC#N): 1.14 ns
fluorescence lifetime (in CC(C)=O): 1.11 ns
fluorescence lifetime (in CN(C)C=O): 1.18 ns
fluorescence lifetime (in Cc1ccccc1): 1.02 ns

SMILES: COc1ccc2c3cccc4c(OC)ccc(c5cccc1c52)c43
fluorescence lifetime (in C1CCOC1): 3.95 ns
fluorescence lifetime (in Cc1ccccc1): 3.6 ns
fluorescence lifetime (in ClC(Cl)(Cl)Cl): 3.65 ns
fluorescence lifetime (in ClC(Cl)Cl): 3.89 ns
fluorescence lifetime (in ClCCl): 4.33 ns
fluorescence lifetime (in c1ccncc1): 4.02 ns

SMILES: CCN1C(=O)C(C2C(=O)c3c4ccccc4cc4cc5ccccc5c2c34)C(=O)N(CC)C1=S (centres undefined)
fluorescence lifetime (in C1CCOC1): 11.1 ns
fluorescence lifetime (in CCCCCC): 13.1 ns
fluorescence lifetime (in Cc1ccccc1): 12.4 ns
fluorescence lifetime (in ClCCl): 10.5 ns

SMILES: C(=C\c1nc(/C=C/c2ccc(-n3c4ccccc4c4ccccc43)cc2)nc(/C=C/c2ccc(-n3c4ccccc4c4ccccc43)cc2)n1)/c1ccc(-n2c3ccccc3c3ccccc32)cc1
fluorescence lifetime (in C1CCOC1): 3.31 ns
fluorescence lifetime (in CC#N): 2.03 ns
fluorescence lifetime (in Cc1ccccc1): 3.87 ns
fluorescence lifetime (in ClCCl): 4.03 ns

SMILES: c1ccc(-c2ccc(-c3ccc(-n4c5ccccc5c5ccccc54)cc3)c3nsnc23)cc1
fluorescence lifetime (in C1CCOC1): 7.52 ns
fluorescence lifetime (in CC(C)=O): 5.2 ns
fluorescence lifetime (in CCCCCC): 5.87 ns
fluorescence lifetime (in CCOCC): 7.2 ns

SMILES: CC(C)(C)c1ccc2c(c1)c1cc(C(C)(C)C)ccc1n2-c1cccc2c1Oc1c(-c3nc(-c4ccccc4)nc(-c4ccccc4)n3)cccc1C2(C)C
fluorescence lifetime (in Cc1ccccc1): 4 ns

SMILES: CCCN1C(=O)C(=CC=CC=C2Oc3ccccc3N2CCCS(=O)(=O)[O-])C(=O)N(CCC)C1=S
fluorescence lifetime (in CC(C)=O): 0.854 ns
fluorescence lifetime (in CCCCO): 0.821 ns
fluorescence lifetime (in CCO): 0.465 ns
fluorescence lifetime (in CO): 0.288 ns
fluorescence lifetime (in ClC(Cl)Cl): 0.712 ns

SMILES: C(=C\c1ccc(-n2c3ccccc3c3ccccc32)cc1)/c1ccc(-c2ccc(/C=C/c3ccc(-n4c5ccccc5c5ccccc54)cc3)cc2)cc1
fluorescence lifetime (in Cc1ccccc1): 0.87 ns
fluorescence lifetime (in c1ccc2c(c1)c1ccccc1n2-c1ccc(-c2ccc(-n3c4ccccc4c4ccccc43)cc2)cc1): 1.3 ns

SMILES: CC1=[N+]2C(=C(c3ccc(N(C)C)cc3)c3ccc(C)n3[B-]2(F)F)C=C1
fluorescence lifetime (in C1CCCCC1): 2.72 ns
fluorescence lifetime (in Cc1ccccc1): 3.24 ns

SMILES: CCCCCCCC(=O)Oc1ccc2c3cccc4c(OC(=O)CCCCCCC)ccc(c5cccc1c52)c43
fluorescence lifetime (in C1CCOC1): 4.35 ns
fluorescence lifetime (in Cc1ccccc1): 3.72 ns
fluorescence lifetime (in ClC(Cl)(Cl)Cl): 3.89 ns
fluorescence lifetime (in ClC(Cl)Cl): 4.16 ns
fluorescence lifetime (in ClCCl): 4.34 ns
fluorescence lifetime (in c1ccncc1): 3.88 ns

SMILES: CN(C)c1ccc(-c2nc3c(c4c2-c2ccc(C#N)cc2CC4)-c2ccc(C#N)cc2CC3)cc1
fluorescence lifetime (in C1CCOC1): 2.93 ns
fluorescence lifetime (in CC#N): 3.56 ns
fluorescence lifetime (in CCCCCC): 0.6 ns
fluorescence lifetime (in CCOC(C)=O): 2.55 ns
fluorescence lifetime (in CO): 1.13 ns
fluorescence lifetime (in CS(C)=O): 1.79 ns
fluorescence lifetime (in Cc1ccccc1): 1.4 ns
fluorescence lifetime (in ClCCl): 1.68 ns

SMILES: C=Cc1ccc(OC)c(OC)c1
fluorescence lifetime (in C1CCCCC1): 3.3 ns
fluorescence lifetime (in CC#N): 3.2 ns

SMILES: N#Cc1c(-n2c3ccccc3c3cc(I)ccc32)c(C#N)c(-n2c3ccccc3c3cc(I)ccc32)c(-n2c3ccccc3c3cc(I)ccc32)c1-n1c2ccccc2c2cc(I)ccc21
fluorescence lifetime (in Cc1ccccc1): 0.4 ns

SMILES: CC1=[N+]2C(=C(c3ccc(N4CCOCC4)cc3)c3ccc(C)n3[B-]2(F)F)C=C1
fluorescence lifetime (in C1CCCCC1): 2.15 ns
fluorescence lifetime (in Cc1ccccc1): 3.12 ns

SMILES: CC(=O)[B-]1(C(C)=O)OC(c2ccccc2)=CC(c2ccccc2)=[O+]1
fluorescence lifetime (in CC#N): 1.5 ns
fluorescence lifetime (in ClC(Cl)(Cl)Cl): 2.1 ns

SMILES: CC(C)(C)c1ccc2c(c1)c1cc(C(C)(C)C)ccc1n2-c1cc(N2c3ccccc3C(c3ccccc3)(c3ccccc3)c3ccccc32)cc(-n2c3ccc(C(C)(C)C)cc3c3cc(C(C)(C)C)ccc32)c1C#N
fluorescence lifetime (in Cc1ccccc1): 14.2 ns

SMILES: O=C1c2ccccc2-c2ccc(Nc3nc(Cl)nc(Cl)n3)c3cccc1c23
fluorescence lifetime (in CC#N): 6.6 ns
fluorescence lifetime (in CC(C)=O): 4.5 ns
fluorescence lifetime (in CC(C)O): 7.7 ns
fluorescence lifetime (in CCCCOCCCC): 0.5 ns
fluorescence lifetime (in CCOC(C)=O): 1.6 ns
fluorescence lifetime (in CCOCC): 0.7 ns
fluorescence lifetime (in CO): 7.6 ns
fluorescence lifetime (in Cc1ccccc1): 0.9 ns
fluorescence lifetime (in Clc1ccccc1): 2 ns
fluorescence lifetime (in N#Cc1ccccc1): 6 ns
fluorescence lifetime (in O=C1CCCCC1): 3.4 ns

SMILES: C(=C\c1ccc(N(c2ccccc2)c2ccccc2)cc1)/c1ccc(/C=C/c2ccc(N(c3ccccc3)c3ccccc3)cc2)cc1
fluorescence lifetime (in C1CCOC1): 1.25 ns
fluorescence lifetime (in CS(C)=O): 1.53 ns
fluorescence lifetime (in Cc1ccccc1): 0.99 ns

More lines, now with the values ahead:

fluorescence lifetime (in ClCCl): 1.65 ns
SMILES: CCCCn1c(-c2ccc(-c3nnc(-c4cccs4)o3)cc2)nc(-c2ccccc2)c1-c1ccccc1

fluorescence lifetime (in ClCCl): 8.11 ns
SMILES: Cc1ccc(C2=[N+]3C(=Cc4ccc(C)n4[B-]3(F)F)c3ccccc32)[nH]1

fluorescence lifetime (in ClC(Cl)Cl): 1.4 ns
SMILES: O=c1oc2ccccc2cc1-c1ccc(-c2cc3ccccc3oc2=O)cc1

fluorescence lifetime (in C1CCCCC1): 0.058 ns
SMILES: Brc1c(Br)c2ccc3c(Br)c(Br)c4ccc5ccc1c1c5c4c3c21

fluorescence lifetime (in CC#N): 8.14 ns
SMILES: Oc1ccc2cc(C3(O)C4CC5CC(C4)CC3C5)ccc2c1 (centres undefined)

fluorescence lifetime (in CCCCCC): 57.8 ns
fluorescence lifetime (in CO): 70.6 ns
fluorescence lifetime (in ClCCl): 42 ns
SMILES: CCCCc1ccc2ccc3c(CCCC)ccc4ccc1c2c43

fluorescence lifetime (in ClCCl): 5.8 ns
SMILES: COc1ccccc1C1=[N+]2C(=C(c3ccccc3)c3c4ccccc4c(-c4ccccc4OC)n3[B-]2(F)F)c2ccccc21

fluorescence lifetime (in C1CCCCC1): 7.8 ns
SMILES: CC[Si](CC)(CC)Oc1cccc(O[Si](CC)(CC)CC)c1-c1c2ccccc2c(-c2c(O[Si](CC)(CC)CC)cccc2O[Si](CC)(CC)CC)c2ccccc12

fluorescence lifetime (in ClCCl): 89.3 ns
SMILES: CC(C)(C)NC(=O)c1ccc(-c2ccc(N3c4ccccc4Oc4ccccc43)cc2)c2ccc3c4ccc(F)cc4c4cc(F)ccc4c3c12

fluorescence lifetime (in ClCCl): 0.75 ns
SMILES: c1ccc2c(c1)c1ccc3cccc4c3c1c2c1c2cccc3ccc5c6ccccc6c(c5c32)c41

fluorescence lifetime (in c1cc(-n2c3ccccc3c3ccccc32)cc(-n2c3ccccc3c3ccccc32)c1): 70 ns
SMILES: N#Cc1cc(-n2c3ccccc3c3ncccc32)c(-n2c3ccccc3c3ncccc32)cc1C#N

fluorescence lifetime (in ClCCl): 2.3 ns
SMILES: CCc1c(C)[nH]c(C2=[N+]3C(=Cc4c(C)c(CC)c(/C=C/c5ccc(N(C)C)cc5)n4[B-]3(F)F)c3ccccc32)c1C

fluorescence lifetime (in C1COCCO1): 1.32 ns
fluorescence lifetime (in CC#N): 2.52 ns
SMILES: C(/C=C/c1ccc(-n2c3ccccc3c3ccccc32)cc1)=C\c1ccncc1

fluorescence lifetime (in ClC(Cl)Cl): 0.315 ns
SMILES: F[B-]1(F)OC(c2cccc(Br)c2)=Cc2c3ccccc3c3ccccc3[n+]21

fluorescence lifetime (in CC#N): 3.26 ns
SMILES: C[n+]1ccn(CCCCc2ccc3c(c2)c2ccccc2n3-c2cc(C#N)c(C#N)cc2F)c1

fluorescence lifetime (in C1CCCCC1): 6.1 ns
fluorescence lifetime (in CC#N): 4.8 ns
fluorescence lifetime (in c1ccccc1): 11 ns
SMILES: CN(C)c1ccc2c(c1)-c1ccccc1C2=O

fluorescence lifetime (in ClCCl): 6.2 ns
SMILES: CCCCCCCCCCCCN1C(=O)c2c(c3ccc4cc(-c5ccc(C)cc5)c(OC)cc4c3c3c2ccc2cc(-c4ccc(C)cc4)c(OC)cc23)C1=O

fluorescence lifetime (in ClCCl): 1.03 ns
SMILES: CCN(CC)c1ccc2c(-c3ccccc3C(=O)O)c3c([o+]c2c1)/C(=C/C=C/c1ccc(N(C)C)cc1)CCC3

fluorescence lifetime (in C1CCOC1): 2.8 ns
SMILES: CCOC(=O)c1ccc(C2=CC3=c4cc(-c5ccc(C(=O)OCC)cc5)c5nc(C(F)(F)C(F)(F)C(F)(F)F)nc6c(-c7ccc(C(=O)OCC)cc7)cc(c4c65)C4=CC(c5ccc(C(=O)OCC)cc5)=C5N=C(C(F)(F)C(F)(F)C(F)(F)F)N=C2C5C43)cc1 (centres undefined)

fluorescence lifetime (in ClCCl): 17.1 ns
SMILES: CCN(CC)c1ccc2c(c1)oc(=O)c1cc3c(C)nn(-c4ccccc4)c3nc12

fluorescence lifetime (in ClCCl): 4.16 ns
SMILES: C(#Cc1ccc(-n2c3ccccc3c3ccccc32)cc1)c1ccc(-c2nc(-c3ccc(C#Cc4ccc(-n5c6ccccc6c6ccccc65)cc4)cc3)nc(-c3ccc(C#Cc4ccc(-n5c6ccccc6c6ccccc65)cc4)cc3)n2)cc1

fluorescence lifetime (in CC#N): 2.5 ns
SMILES: O=C(O)c1ccc(-c2nc(-c3ccccc3)c3c4ccccc4ccn23)cc1

fluorescence lifetime (in ClC(Cl)Cl): 1.6 ns
SMILES: C(#Cc1cccs1)C(C#Cc1cccs1)=Cc1ccc(C=C(C#Cc2cccs2)C#Cc2cccs2)cc1

fluorescence lifetime (in CC#N): 3.92 ns
fluorescence lifetime (in O): 1.04 ns
SMILES: CC(=O)OC[C@@H]1O[C@H](N2C=CC3=Nc4nc(C)[n+](C)cc4CN3C2=O)[C@@H](O)[C@H]1O

fluorescence lifetime (in O): 3.1 ns
SMILES: O=C(O)c1cccc2c(=O)c3ccccc3[nH]c12

fluorescence lifetime (in ClCCl): 0.65 ns
SMILES: CCOc1cccc(-c2nc3c(c4c2-c2ccccc2CC4)-c2ccccc2CC3)c1O

fluorescence lifetime (in ClC(Cl)Cl): 0.203 ns
SMILES: CN(C)c1ccc(/C=C/c2cc[n+](CCCCCCCCCCCC[n+]3ccc(/C=C/c4ccc(N(C)C)cc4)cc3)cc2)cc1

fluorescence lifetime (in CC#N): 4.1 ns
fluorescence lifetime (in CCO): 3.99 ns
fluorescence lifetime (in CN(C)C=O): 3.74 ns
fluorescence lifetime (in O): 4.2 ns
SMILES: COC(=O)c1ccccc1-c1c2ccc(=[NH2+])cc-2oc2cc(N)ccc12

fluorescence lifetime (in ClCCl): 0.63 ns
SMILES: O=[N+]([O-])c1ccc2c(c1)-c1c3c(c4c([n+]1[B-](F)(F)O2)CCc1ccccc1-4)CCc1ccccc1-3

fluorescence lifetime (in CN(C)C=O): 3.1 ns
SMILES: O=C1NC(=O)c2ccc3c4ccc5c6c(ccc(c7ccc1c2c73)c64)C(=O)N(c1ccc(Cl)cc1)C5=O
